Structures are written as SMILES.

Assay [1] has as its target T1, Pyruvate carboxylase (RePC) (Rhizobium etli, UniProt Q2K340). Put plainly: X-ray co-crystal structure. The format is binding.
The target of assay [2] is T1, Pyruvate carboxylase (RePC). The assay is described as follows: ITC. The format is binding.

As a reminder, the Kd is the constant that tells how readily two partners part at equilibrium. A low value points to tighter binding. As for `O=C(O)C(=O)O` [oxalate], the Kd in assay [1] was found to be 130 µM.

Molecule `CC(=O)C(=O)O` [pyruvate] returned a Kd in assay [2] of around 2000 µM.

The values are drawn from paper PMC3894693 (Biochemical and biophysical research communications, 2013).
